Results as given in US9617256B2 (priority 2007, dated 2017).
Values after ≈ are worked out from the molar mass of the structure shown. Read-outs that look alike come from different tables or passages of the source.

Experiments:
[1] = test system: APAE006 (strain of P. aeruginosa in which all efflux pumps are inactivated); test: microbe, parasite or virus in culture; type: cell-based; settings: Pseudomonas aeruginosa, read-out: MIC APAE006, APAE006, all efflux pumps inactivated
Outline: (§1)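 MICs come from broth microdilution in cation-adjusted Mueller-Hinton broth, final inoculum 3×10^5–7×10^5 CFU/mL, 18-24 hours at 35° C. Levofloxacin and QC strains served as assay controls.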

[2] = test system: AABA1060 (clinical isolate of Acinetobacter baumannii); test: MIC broth microdilution, AABA1060; type: cell-based; settings: Acinetobacter baumannii, read-out: MIC AABA1060
Outline: (§2)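 Inocula prepared from 0.5 McFarland suspensions (final 3×10^5–7×10^5 CFU/mL) were added to 2-fold drug dilution series in cation-adjusted Mueller-Hinton broth. Plates stood 18-24 hours at 35° C. under ambient air.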

AECO001 (ATCC25922) = test: MIC broth microdilution, AECO001; type: cell-based, E. coli; settings: Escherichia coli
Outline: as §2

[3] = test system: APAE006 in the presence of 8 micrograms per milliliter of polymyxin B nonapeptide; type: cell-based, P. aeruginosa; settings: APAE006 with 8 micrograms per milliliter polymyxin B nonapeptide
Outline: as §1

APAE001 (ATCC27853) = test: MIC broth microdilution, APAE001; type: cell-based, P. aeruginosa; settings: Pseudomonas aeruginosa, ATCC27853, read-out: MIC APAE001, APAE001 (ATCC27853)
Outline: as §2

[4] = test system: AECO063 (ATCC25922 bearing an acrAB mutation); test: microbe, parasite or virus in culture; type: cell-based, E. coli; settings: Escherichia coli, ATCC25922, read-out: MIC AECO063
Outline: as §2

[5] = test system: ASAU001 (laboratory strain of S. aureus, ATCC29213); test: MIC broth microdilution, ASAU001; type: cell-based; settings: Staphylococcus aureus, ATCC29213, read-out: MIC ASAU001
Outline: as §2

[6] = ATCC25922, read-out: MIC AECO001
[7] = ATCC25922, read-out: MIC AECO001 HSA AGP

Compound	MIC [1]	MIC [2]	MIC (AECO001 (ATCC25922); [6])	MIC (AECO001 (ATCC25922); [7])	MIC APAE006 + PMBN [3]	MIC (APAE001 (ATCC27853))	MIC [4]	MIC [5]
C[C@@H](N)[C@H](NC(=O)c1ccc(C#CC#CC2CCNCC2)cc1)C(=O)NO [Example 137-22]	2 to 16 µg/mL (≈ 5.43 to 43.4 µM)	16 to 64 µg/mL (≈ 43.4 to 174 µM)	16 to 64 µg/mL (≈ 43.4 to 174 µM)	16 to 64 µg/mL (≈ 43.4 to 174 µM)	B (MIC's of greater than 2.0 μg/mL to 16.0 μg/mL = B)	2 to 16 µg/mL (≈ 5.43 to 43.4 µM)	16 to 64 µg/mL (≈ 43.4 to 174 µM)	16 to 64 µg/mL (≈ 43.4 to 174 µM)
CC(C)CCC#CC#Cc1ccc(C(=O)N[C@H](C(=O)NO)C(C)(C)N)cc1 [Example 91-21]	< 2 µg/mL	2 to 16 µg/mL (≈ 5.41 to 43.3 µM)	< 2 µg/mL	2 to 16 µg/mL (≈ 5.41 to 43.3 µM)	A (MIC's of 2.0 μg/mL or less = A)	2 to 16 µg/mL (≈ 5.41 to 43.3 µM)	< 2 µg/mL	2 to 16 µg/mL (≈ 5.41 to 43.3 µM)
CC(C)(N)[C@H](NC(=O)c1ccc(C#Cc2ccc(CN3CCS(=O)(=O)CC3)cc2)cc1)C(=O)NO [Example 122-4]	< 2 µg/mL	< 2 µg/mL	< 2 µg/mL	2 to 16 µg/mL (≈ 4.01 to 32.1 µM)	A (MIC's of 2.0 μg/mL or less = A)	< 2 µg/mL	< 2 µg/mL	16 to 64 µg/mL (≈ 32.1 to 128 µM)
C[C@@H](N)[C@H](NC(=O)c1ccc(C#Cc2ccc(COCC(F)(F)F)cc2)cc1)C(=O)NO [Example 124-1, N-((1S,2R)-2-Amino-1-hydroxycarbamoyl-propyl)-4-[4-(2,2,2-trifluoro-ethoxymethyl)-phenylethynyl]-benzamide]	< 2 µg/mL	16 to 64 µg/mL (≈ 35.6 to 142 µM)	< 2 µg/mL	2 to 16 µg/mL (≈ 4.45 to 35.6 µM)	A (MIC's of 2.0 μg/mL or less = A)	2 to 16 µg/mL (≈ 4.45 to 35.6 µM)	< 2 µg/mL	16 to 64 µg/mL (≈ 35.6 to 142 µM)
C[C@@H](O)[C@H](NC(=O)c1ccc(/C=C/C#Cc2ccccc2F)cc1)C(=O)NO [Example 114-12]	< 2 µg/mL	< 2 µg/mL	< 2 µg/mL	2 to 16 µg/mL (≈ 5.23 to 41.8 µM)	A (MIC's of 2.0 μg/mL or less = A)	2 to 16 µg/mL (≈ 5.23 to 41.8 µM)	< 2 µg/mL	16 to 64 µg/mL (≈ 41.8 to 167 µM)
C[C@@H](O)[C@H](NC(=O)c1ccc(/C=C/C#Cc2cccnc2)cc1)C(=O)NO [Example 114-13]	< 2 µg/mL	2 to 16 µg/mL (≈ 5.47 to 43.8 µM)	< 2 µg/mL	2 to 16 µg/mL (≈ 5.47 to 43.8 µM)	A (MIC's of 2.0 μg/mL or less = A)	2 to 16 µg/mL (≈ 5.47 to 43.8 µM)	< 2 µg/mL	16 to 64 µg/mL (≈ 43.8 to 175 µM)
CC(C)(O)[C@H](NC(=O)c1ccc(C#Cc2ccncc2)cc1)C(=O)NO [Example 133-15]	< 2 µg/mL	2 to 16 µg/mL (≈ 5.66 to 45.3 µM)	2 to 16 µg/mL (≈ 5.66 to 45.3 µM)	2 to 16 µg/mL (≈ 5.66 to 45.3 µM)	A (MIC's of 2.0 μg/mL or less = A)	2 to 16 µg/mL (≈ 5.66 to 45.3 µM)	< 2 µg/mL	16 to 64 µg/mL (≈ 45.3 to 181 µM)
C[C@@H](O)[C@H](NC(=O)c1ccc(C#CC#Cc2ccncc2)cc1)C(=O)NO [Example 137-19]	< 2 µg/mL	16 to 64 µg/mL (≈ 44 to 176 µM)	< 2 µg/mL	2 to 16 µg/mL (≈ 5.5 to 44 µM)	A (MIC's of 2.0 μg/mL or less = A)	2 to 16 µg/mL (≈ 5.5 to 44 µM)	< 2 µg/mL	16 to 64 µg/mL (≈ 44 to 176 µM)
C[C@@H](N)[C@H](NC(=O)c1ccc(C#CC2CC2)cc1)C(=O)NO [Example 137-21]	< 2 µg/mL	2 to 16 µg/mL (≈ 6.64 to 53.1 µM)	16 to 64 µg/mL (≈ 53.1 to 212 µM)	16 to 64 µg/mL (≈ 53.1 to 212 µM)	A (MIC's of 2.0 μg/mL or less = A)	2 to 16 µg/mL (≈ 6.64 to 53.1 µM)	16 to 64 µg/mL (≈ 53.1 to 212 µM)	16 to 64 µg/mL (≈ 53.1 to 212 µM)
C[C@@H](NCC(=O)NC[C@H](NC(=O)c1ccc(C#Cc2ccccc2)cc1)C(=O)NO)c1ccccc1 [Example 132-3]	< 2 µg/mL	2 to 16 µg/mL (≈ 4.13 to 33 µM)	< 2 µg/mL	2 to 16 µg/mL (≈ 4.13 to 33 µM)	A (MIC's of 2.0 μg/mL or less = A)	16 to 64 µg/mL (≈ 33 to 132 µM)	< 2 µg/mL	16 to 64 µg/mL (≈ 33 to 132 µM)
Cn1cc(C#CC#Cc2ccc(C(=O)N[C@H](C(=O)NO)C(C)(C)O)cc2)cn1 [Example 89-3]	< 2 µg/mL	2 to 16 µg/mL (≈ 5.26 to 42.1 µM)	< 2 µg/mL	< 2 µg/mL	A (MIC's of 2.0 μg/mL or less = A)	< 2 µg/mL	< 2 µg/mL	16 to 64 µg/mL (≈ 42.1 to 168 µM)
CC(C)(O)[C@H](NC(=O)c1ccc(C#CC#Cc2ccc(F)cc2)cc1)C(=O)NO [Example 82-19]	< 2 µg/mL	< 2 µg/mL	< 2 µg/mL	2 to 16 µg/mL (≈ 5.07 to 40.6 µM)	A (MIC's of 2.0 μg/mL or less = A)	2 to 16 µg/mL (≈ 5.07 to 40.6 µM)	< 2 µg/mL	16 to 64 µg/mL (≈ 40.6 to 162 µM)
